# From US20240059671A1, “TYROSINE KINASE 2 (TYK2) DEGRADATION COMPOUNDS AND METHODS OF USE” (CULLGEN (SHANGHAI), INC., priority 2020, published 2024)
# Target: TYK2 (Homo sapiens, UniProt P29597)
# Test: TYK2 protein degradation in MOLT-4 cells by immunoblotting
# Type: cell-based
# Set-up: endogenous in cells; host or cells: MOLT-4
# Conditions: MOLT-4 cells, 24 hours
# How it was run: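 Percent TYK2 degradation came from densitometry of chemiluminescent immunoblots of RIPA lysates. Before lysis, MOLT-4 cells had been treated for 24 h with each compound at 0.5 or 5 μM.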
# Sequence of TYK2 (P29597 whole entry): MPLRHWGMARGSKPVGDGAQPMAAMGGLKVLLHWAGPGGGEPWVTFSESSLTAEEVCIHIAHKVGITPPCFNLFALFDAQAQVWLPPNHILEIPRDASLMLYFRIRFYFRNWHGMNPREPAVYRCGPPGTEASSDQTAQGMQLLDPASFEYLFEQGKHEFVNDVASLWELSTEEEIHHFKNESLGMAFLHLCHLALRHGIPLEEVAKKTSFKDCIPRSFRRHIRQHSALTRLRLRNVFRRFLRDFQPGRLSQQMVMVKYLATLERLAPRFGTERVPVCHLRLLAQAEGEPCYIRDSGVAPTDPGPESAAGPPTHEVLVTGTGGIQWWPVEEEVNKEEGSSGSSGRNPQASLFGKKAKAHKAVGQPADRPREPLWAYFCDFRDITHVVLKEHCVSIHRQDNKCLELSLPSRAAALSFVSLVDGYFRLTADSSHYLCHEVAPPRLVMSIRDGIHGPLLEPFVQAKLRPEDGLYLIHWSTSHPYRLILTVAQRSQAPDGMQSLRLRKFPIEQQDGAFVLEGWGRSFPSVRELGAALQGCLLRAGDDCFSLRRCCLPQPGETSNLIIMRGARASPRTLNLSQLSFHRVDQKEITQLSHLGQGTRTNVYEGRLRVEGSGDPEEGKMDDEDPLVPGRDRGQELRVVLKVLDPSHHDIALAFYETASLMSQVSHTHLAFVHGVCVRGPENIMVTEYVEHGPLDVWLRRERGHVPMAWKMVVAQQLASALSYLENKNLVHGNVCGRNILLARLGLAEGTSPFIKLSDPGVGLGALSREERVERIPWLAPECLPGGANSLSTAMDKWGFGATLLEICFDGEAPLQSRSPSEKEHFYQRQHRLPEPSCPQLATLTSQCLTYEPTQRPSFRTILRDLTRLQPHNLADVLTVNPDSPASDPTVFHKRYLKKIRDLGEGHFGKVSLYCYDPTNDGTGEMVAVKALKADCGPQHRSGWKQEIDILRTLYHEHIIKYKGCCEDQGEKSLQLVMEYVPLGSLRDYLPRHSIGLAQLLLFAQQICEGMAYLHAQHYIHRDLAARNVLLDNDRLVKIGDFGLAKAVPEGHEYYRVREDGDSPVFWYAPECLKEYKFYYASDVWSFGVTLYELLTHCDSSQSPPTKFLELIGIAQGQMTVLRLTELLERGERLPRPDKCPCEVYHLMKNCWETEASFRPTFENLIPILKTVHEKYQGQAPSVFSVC
"TYK2 Degradation (MOLT-4, 0.5 μM)","TYK2 Degradation (MOLT-4, 5 μM)",TYK2 Degradation (0.5 μM),TYK2 Degradation (5 μM),SMILES
C (C: ≤20% TYK2 degradation),C (C: ≤20% TYK2 degradation),,,"CNC(=O)c1nnc(NC(=O)CNC(=O)COc2cc(-c3scnc3C)ccc2CNC(=O)[C@@H]2C[C@@H](O)CN2C(=O)[C@@H](NC(=O)C2(F)CC2)C(C)(C)C)cc1Nc1cccc(-c2ncn(C)n2)c1OC [CPD-101, 6-(2-(2-(2-(((2S,4R)-1-((S)-2-(1-Fluorocyclopropane-1-carboxamido)-3,3-dimethylbutanoyl)-4-hydroxypyrrolidine-2-carboxamido)methyl)-5-(4-methylthiazol-5-yl)phenoxy)acetamido)acetamido)-4-((2-methoxy-3-(1-methyl-1H-1,2,4-triazol-3-yl)phenyl)amino)-N-methylpyridazine-3-carboxamide]"
,,≤20%,,"CNC(=O)c1nnc(NC(=O)C2CC2)cc1Nc1cccc(-c2ncn(CCNC(=O)CCCNc3ccc4c(c3)C(=O)N(C3CCC(=O)NC3=O)C4=O)n2)c1OC (centres unmarked) [CPD-015, 6-(Cyclopropanecarboxamido)-4-((3-(1-(2-(4-((2-(2,6-dioxopiperidin-3-yl)-1,3-dioxoisoindolin-5-yl)amino)butanamido)ethyl)-1H-1,2,4-triazol-3-yl)-2-methoxyphenyl)amino)-N-methylpyridazine-3-carboxamide]"
C (C: ≤20% TYK2 degradation),C (C: ≤20% TYK2 degradation),,,"CNC(=O)c1nnc(NC(=O)CNC(=O)CCCCCCCOc2cc(-c3scnc3C)ccc2CNC(=O)[C@@H]2C[C@@H](O)CN2C(=O)[C@@H](NC(=O)C2(F)CC2)C(C)(C)C)cc1Nc1cccc(-c2ncn(C)n2)c1OC [CPD-107, 6-(2-(8-(2-(((2S,4R)-1-((S)-2-(1-Fluorocyclopropane-1-carboxamido)-3,3-dimethylbutanoyl)-4-hydroxypyrrolidine-2-carboxamido)methyl)-5-(4-methylthiazol-5-yl)phenoxy)octanamido)acetamido)-4-((2-methoxy-3-(1-methyl-1H-1,2,4-triazol-3-yl)phenyl)amino)-N-methylpyridazine-3-carboxamide]"
,,≤20%,≤20%,"CNC(=O)c1nnc(NC(=O)C2CC2)cc1Nc1cccc(-c2ncn(CCNC(=O)COCC(=O)N[C@H](C(=O)N3C[C@H](O)C[C@H]3C(=O)NCc3ccc(-c4scnc4C)cc3)C(C)(C)C)n2)c1OC [CPD-066, 6-(Cyclopropanecarboxamido)-4-((3-(1-(2-(2-(2-(((S)-1-((2S,4R)-4-hydroxy-2-((4-(4-methylthiazol-5-yl)benzyl)carbamoyl)pyrrolidin-1-yl)-3,3-dimethyl-1-oxobutan-2-yl)amino)-2-oxoethoxy)acetamido)ethyl)-1H-1,2,4-triazol-3-yl)-2-methoxyphenyl)amino)-N-methylpyridazine-3-carboxamide]"
,,≤20%,,"CNC(=O)c1nnc(NC(=O)C2CC2)cc1Nc1cccc(-c2ncn(CCNC(=O)CCCNc3cccc4c3C(=O)N(C3CCC(=O)NC3=O)C4=O)n2)c1OC (centres unmarked) [CPD-003, 6-(Cyclopropanecarboxamido)-4-((3-(1-(2-(4-((2-(2,6-dioxopiperidin-3-yl)-1,3-dioxoisoindolin-4-yl)amino)butanamido)ethyl)-1H-1,2,4-triazol-3-yl)-2-methoxyphenyl)amino)-N-methylpyridazine-3-carboxamide]"
C (C: ≤20% TYK2 degradation),C (C: ≤20% TYK2 degradation),,,"CNC(=O)c1nnc(NC(=O)CNC(=O)CCCCCCNC(=O)C[C@H](NC(=O)[C@@H]2C[C@@H](O)CN2C(=O)[C@@H](NC(=O)C2(F)CC2)C(C)(C)C)c2ccc(-c3scnc3C)cc2)cc1Nc1cccc(-c2ncn(C)n2)c1OC [CPD-091, 6-(2-(7-((S)-3-((2S,4R)-1-((S)-2-(1-Fluorocyclopropane-1-carboxamido)-3,3-dimethylbutanoyl)-4-hydroxypyrrolidine-2-carboxamido)-3-(4-(4-methylthiazol-5-yl)phenyl)propanamido)heptanamido)acetamido)-4-((2-methoxy-3-(1-methyl-1H-1,2,4-triazol-3-yl)phenyl)amino)-N-methylpyridazine-3-carboxamide]"
,,≤20%,≤20%,"CNC(=O)c1nnc(NC(=O)CNC(=O)CCOCCOCCOCCOCCOCCNc2ccc3c(c2)C(=O)N(C2CCC(=O)NC2=O)C3=O)cc1Nc1cccc(-c2ncn(C)n2)c1OC (centres unmarked) [CPD-065, 6-(1-((2-(2,6-Dioxopiperidin-3-yl)-1,3-dioxoisoindolin-5-yl)amino)-18-oxo-3,6,9,12,15-pentaoxa-19-azahenicosan-21-amido)-4-((2-methoxy-3-(1-methyl-1H-1,2,4-triazol-3-yl)phenyl)amino)-N-methylpyridazine-3-carboxamide]"
,,≤20%,≤20%,"CNC(=O)c1nnc(NC(=O)CNC(=O)CCOCCOCCNc2cccc3c2C(=O)N(C2CCC(=O)NC2=O)C3=O)cc1Nc1cccc(-c2ncn(C)n2)c1OC (centres unmarked) [CPD-050, 6-(2-(3-(2-(2-((2-(2,6-Dioxopiperidin-3-yl)-1,3-dioxoisoindolin-4-yl)amino)ethoxy)ethoxy)propanamido)acetamido)-4-((2-methoxy-3-(1-methyl-1H-1,2,4-triazol-3-yl)phenyl)amino)-N-methylpyridazine-3-carboxamide]"
,,≤20%,≤20%,"CNC(=O)c1nnc(NC(=O)CNC(=O)CCOCCC(=O)N[C@H](C(=O)N2C[C@H](O)C[C@H]2C(=O)NCc2ccc(-c3scnc3C)cc2)C(C)(C)C)cc1Nc1cccc(-c2ncn(C)n2)c1OC [CPD-026, 6-(2-(3-(3-(((S)-1-((2S,4R)-4-Hydroxy-2-((4-(4-methylthiazol-5-yl)benzyl)carbamoyl)pyrrolidin-1-yl)-3,3-dimethyl-1-oxobutan-2-yl)amino)-3-oxopropoxy)propanamido)acetamido)-4-((2-methoxy-3-(1-methyl-1H-1,2,4-triazol-3-yl)phenyl)amino)-N-methylpyridazine-3-carboxamide]"
,,≤20%,≤20%,"CNC(=O)c1nnc(NC(=O)C2CC2)cc1Nc1cccc(-c2ncn(CCNC(=O)CCC(=O)N[C@H](C(=O)N3C[C@H](O)C[C@H]3C(=O)NCc3ccc(-c4scnc4C)cc3)C(C)(C)C)n2)c1OC [CPD-075, N^1-(2-(3-(3-((6-(Cyclopropanecarboxamido)-3-(methylcarbamoyl)pyridazin-4-yl)amino)-2-methoxyphenyl)-1H-1,2,4-triazol-1-yl)ethyl)-N^4-((S)-1-((2S,4R)-4-hydroxy-2-((4-(4-methylthiazol-5-yl)benzyl)carbamoyl)pyrrolidin-1-yl)-3,3-dimethyl-1-oxobutan-2-yl)succinamide]"
,,≤20%,≤20%,"CNC(=O)c1nnc(NC(=O)C2CC2)cc1Nc1cccc(-c2ncn(CCNC(=O)CCCCCC(=O)N[C@H](C(=O)N3C[C@H](O)C[C@H]3C(=O)NCc3ccc(-c4scnc4C)cc3)C(C)(C)C)n2)c1OC [CPD-078, N^1-(2-(3-(3-((6-(Cyclopropanecarboxamido)-3-(methylcarbamoyl)pyridazin-4-yl)amino)-2-methoxyphenyl)-1H-1,2,4-triazol-1-yl)ethyl)-N^7-((S)-1-((2S,4R)-4-hydroxy-2-((4-(4-methylthiazol-5-yl)benzyl)carbamoyl)pyrrolidin-1-yl)-3,3-dimethyl-1-oxobutan-2-yl)heptanediamide]"
,,40%,≤20%,"CNC(=O)c1nnc(NC(=O)C2CC2)cc1Nc1cccc(-c2ncn(CCNC(=O)CCOCCOCCOCCOCCOCCNc3ccc4c(c3)C(=O)N(C3CCC(=O)NC3=O)C4=O)n2)c1OC (centres unmarked) [CPD-022, 6-(Cyclopropanecarboxamido)-4-((3-(1-(1-((2-(2,6-dioxopiperidin-3-yl)-1,3-dioxoisoindolin-5-yl)amino)-18-oxo-3,6,9,12,15-pentaoxa-19-azahenicosan-21-yl)-1H-1,2,4-triazol-3-yl)-2-methoxyphenyl)amino)-N-methylpyridazine-3-carboxamide]"
C (C: ≤20% TYK2 degradation),C (C: ≤20% TYK2 degradation),,,"CNC(=O)c1nnc(NC(=O)CNC(=O)CCOc2cc(-c3scnc3C)ccc2CNC(=O)[C@@H]2C[C@@H](O)CN2C(=O)[C@@H](NC(=O)C2(F)CC2)C(C)(C)C)cc1Nc1cccc(-c2ncn(C)n2)c1OC [CPD-102, 6-(2-(3-(2-(((2S,4R)-1-((S)-2-(1-Fluorocyclopropane-1-carboxamido)-3,3-dimethylbutanoyl)-4-hydroxypyrrolidine-2-carboxamido)methyl)-5-(4-methylthiazol-5-yl)phenoxy)propanamido)acetamido)-4-((2-methoxy-3-(1-methyl-1H-1,2,4-triazol-3-yl)phenyl)amino)-N-methylpyridazine-3-carboxamide]"

SMILES,"TYK2 Degradation (MOLT-4, 0.5 μM)","TYK2 Degradation (MOLT-4, 5 μM)",TYK2 Degradation (0.5 μM),TYK2 Degradation (5 μM)
"CNC(=O)c1nnc(Nc2ccc(N3CCN(C(=O)CCCCCCC(=O)N[C@H](C(=O)N4C[C@H](O)C[C@H]4C(=O)NCc4ccc(-c5scnc5C)cc4)C(C)(C)C)CC3)cn2)cc1Nc1cccc(-c2ncn(C)n2)c1OC [CPD-100, 6-((5-(4-(8-(((S)-1-((2S,4R)-4-hydroxy-2-((4-(4-methylthiazol-5-yl)benzyl)carbamoyl)pyrrolidin-1-yl)-3,3-dimethyl-1-oxobutan-2-yl)amino)-8-oxooctanoyl)piperazin-1-yl)pyridin-2-yl)amino)-4-((2-methoxy-3-(1-methyl-1H-1,2,4-triazol-3-yl)phenyl)amino)-N-methylpyridazine-3-carboxamide]",A (A: ≥60% TYK2 degradation),"B (B: <60% TYK2 degradation, and >20% TYK2 degradation)",,
